Laboratory results taken from patent US20240270703A1, “HERBICIDAL COMPOUNDS” (SYNGENTA CROP PROTECTION AG, priority 2021, published 2024).

How the values were obtained:
Assay type in all cases: in vivo
[1] = test system: Amaranthus retroflexus (AMARE); assay: Herbicidal glasshouse test, POST application; settings: 130 g/ha; evaluated after 14 days; 100=total damage to plant, 0=no damage to plant
Zea mays (ZEAMX) [2] = assay: Herbicidal glasshouse test, PRE application (crop damage); settings: 130 g/ha; evaluated after 14 days; 100=total damage to plant, 0=no damage to plant; maize crop
Method: (§1) Seeds of a variety of test species are sown in standard soil in pots (Lolium perenne (LOLPE), Amaranthus retroflexus (AMARE), Abutilon theophrasti (ABUTH), Setaria faberi (SETFA), Echinochloa crus-galli (ECHCG), Zea mays (ZEAMX)). After cultivation for one day under controlled conditions in a glasshouse (at 24/16° C., day/night; 14 hours light; 65% humidity), the plants were sprayed with an aqueous spray solution derived from the formulation of the technical active ingredient in 0.6 ml acetone and 45 ml formulation solution containing 10.6% Emulsogen EL (Registry number 61791-12-6), 42.2% N-methyl pyrrolidone, 42.2% dipropylene glycol monomethyl ether (CAS RN 34590-94-8) and 0.2% X-77 (CAS RN 11097-66-8).
(§2) The test plants were then grown in a glasshouse under controlled conditions in a glasshouse (at 24/16° C., day/night; 14 hours light; 65% humidity) and watered twice daily. After 14 days, the test was evaluated (100=total damage to plant; 0=no damage to plant, NC=data not captured). The compounds were applied at 130 g/ha unless otherwise stated.

[3] = test system: Echinochloa crus-galli (ECHCG); assay: Herbicidal glasshouse test, PRE application; settings: 130 g/ha; evaluated after 14 days; 100=total damage to plant, 0=no damage to plant
Method: as §1, §2

[4] = test system: Amaranthus retroflexus (AMARE); assay: Herbicidal glasshouse test, PRE application; settings: 130 g/ha; evaluated after 14 days; 100=total damage to plant, 0=no damage to plant
Method: as §1, §2

Setaria faberi (SETFA) [5] = assay: Herbicidal glasshouse test, PRE application; settings: 130 g/ha; evaluated after 14 days; 100=total damage to plant, 0=no damage to plant
Method: as §1, §2

[6] = test system: Echinochloa crus-galli (ECHCG); assay: Herbicidal glasshouse test, POST application; settings: 130 g/ha; evaluated after 14 days; 100=total damage to plant, 0=no damage to plant
Setaria faberi (SETFA) [7] = assay: Herbicidal glasshouse test, POST application; settings: 130 g/ha; evaluated after 14 days; 100=total damage to plant, 0=no damage to plant
Zea mays (ZEAMX) [8] = assay: Herbicidal glasshouse test, POST application (crop damage); settings: 130 g/ha; evaluated after 14 days; 100=total damage to plant, 0=no damage to plant; maize crop
[9] = test system: Abutilon theophrasti (ABUTH); assay: Herbicidal glasshouse test, PRE application; settings: 130 g/ha; evaluated after 14 days; 100=total damage to plant, 0=no damage to plant
Method: as §1, §2

[10] = test system: Abutilon theophrasti (ABUTH); assay: Herbicidal glasshouse test, POST application; settings: 130 g/ha; evaluated after 14 days; 100=total damage to plant, 0=no damage to plant

SMILES | damage to plant, AMARE, POST Application [1] | damage to plant, ZEAMX, PRE Application (Zea mays (ZEAMX) [2]) | damage to plant, ECHCG, PRE Application [3] | damage to plant, AMARE, PRE Application [4] | damage to plant, SETFA, PRE Application (Setaria faberi (SETFA) [5]) | damage to plant, ECHCG, POST Application [6] | damage to plant, SETFA, POST Application (Setaria faberi (SETFA) [7]) | damage to plant, ZEAMX, POST Application (Zea mays (ZEAMX) [8]) | damage to plant, ABUTH, PRE Application [9] | damage to plant, ABUTH, POST Application [10]
CN(C)S(=O)(=O)c1c(OC(F)F)ccc(C(=O)Nc2nnnn2C)c1Cl [Compound 1.009] | 100 | 10 | 100 | 100 | 100 | 90 | 90 | 10 | – | –
Cn1nnnc1NC(=O)c1ccc(OC(F)(F)F)c(S(=O)(=O)NCC2CC2)c1Cl [Compound 1.001] | 100 | 0 | 20 | 100 | 0 | 60 | 20 | 0 | 100 | 80
CCN(C)S(=O)(=O)c1c(OC(F)F)ccc(C(=O)Nc2nnnn2C)c1Cl [Compound 1.010] | 100 | 10 | 100 | 100 | 100 | 100 | 90 | 10 | – | –
CNS(=O)(=O)c1c(OC(F)(F)F)ccc(C(=O)Nc2nnnn2C)c1Cl [Compound 1.004] | 80 | 0 | 90 | 100 | 90 | 80 | 80 | 10 | 100 | 80
CCNS(=O)(=O)c1c(OC(F)(F)F)ccc(C(=O)Nc2nnnn2C)c1Cl [Compound 1.002, 2-chloro-3-(ethylsulfamoyl)-N-(1-methyltetrazol-5-yl)-4-(trifluoromethoxy)benzamide] | 100 | 0 | 10 | 100 | 0 | 90 | 70 | 0 | 80 | 90
CN(C)S(=O)(=O)c1c(OC(F)(F)F)ccc(C(=O)Nc2nnnn2C)c1Cl [Compound 1.003] | 100 | 0 | 70 | 90 | 0 | 100 | 100 | 0 | 90 | 100
